Results as given in US20240262826A1, “WILD TYPE KIT INHIBITORS” (Blueprint Medicines Corporation, priority 2022, published 2024).

Key:
wild type c-kit = wild type c-kit (Homo sapiens (Human), UniProt P10721); assay: MSD Phospho c-Kit (Tyr721) Assay Whole Cell Lysate Kit in SCF-stimulated M-07e cells (pKIT assay, marked *); format: cell-based; details: Meso Scale Discovery (MSD) assay (values marked *)
Experimental: The ability of compounds of the disclosure (described herein as test compounds) to inhibit autophosphorylation of wild type c-kit was measures using either a PathScan phospho c-kit (Tyr719) sandwich ELISA (CST #7298) or a Phospho c-Kit (Tyr721) Assay Whole Cell Lysate Kit (MSD: 515DPD/catalog number K15119D-2).
For the MSD Phospho c-Kit (Tyr721) Assay Whole Cell Lysate Kit: M-07e cells were maintained in Iscove's Modified Dulbecco's Medium (IMDM) media supplemented with 10% FBS, 5 ng/ml granulocyte-macrophage colony-stimulating factor (GM-CSF) and 100 units/mL Penicillin-Streptomycin, and grown in a 37° C., 5% CO2 in a humidified tissue culture incubator. M-07e cells were washed with phenol red-free, serum-free, GM-CSF-free IMDM and seeded in the same media at 100,000 cells well in a volume of 50 ul in a 96-well U-bottom plate. The cells were incubated for 4 hours, followed by the addition of test compound at a final DMSO concentration of 0.25% for 60 min at 37° C. to generate an 8-point dose concentration series of test compounds. The cells were stimulated with 50 ng/ml human SCF for 10 min at room temperature. Cells were then lysed by the addition of 16.5 ul of PerkinElmer 5× AlphaLISA Lysis Buffer supplemented with Cell Signaling Technologies protease/phosphatase inhibitor. Lysis was encouraged by shaking at 4° C. for 30 minutes.
25 ul of lysate was transferred to the MSD plate and the plate was shaken at 700 rpm at room temperature for one hour, followed by washing 3 times with Tris wash buffer. Next, 25 ul of detection antibody solution (diluted from 50× stock in antibody dilution buffer) was added. After shaking at 700 rpm at room temperature for one hour, the plate was washed 3 times with Tris wash buffer. The plate was then read on MSD Sector Imager immediately after 150 ul of reading buffer added to each well.
An IC50 was calculated using a 4-parameter logistic nonlinear regression.

[1] = target: human P-glycoprotein (P-gp, MDR1) (Homo sapiens (Human), UniProt P08183); assay: MDCK-MDR1 cell monolayer drug transport assay (P-gp efflux ratio); format: in vitro ADME; details: pH 7.4, MDCK-MDR1 cells, 1 uM concentration of compound, read-out: Pgp Efflux Ratio, 1 uM
human P-glycoprotein (P-gp, MDR1), sequence (P08183 whole entry): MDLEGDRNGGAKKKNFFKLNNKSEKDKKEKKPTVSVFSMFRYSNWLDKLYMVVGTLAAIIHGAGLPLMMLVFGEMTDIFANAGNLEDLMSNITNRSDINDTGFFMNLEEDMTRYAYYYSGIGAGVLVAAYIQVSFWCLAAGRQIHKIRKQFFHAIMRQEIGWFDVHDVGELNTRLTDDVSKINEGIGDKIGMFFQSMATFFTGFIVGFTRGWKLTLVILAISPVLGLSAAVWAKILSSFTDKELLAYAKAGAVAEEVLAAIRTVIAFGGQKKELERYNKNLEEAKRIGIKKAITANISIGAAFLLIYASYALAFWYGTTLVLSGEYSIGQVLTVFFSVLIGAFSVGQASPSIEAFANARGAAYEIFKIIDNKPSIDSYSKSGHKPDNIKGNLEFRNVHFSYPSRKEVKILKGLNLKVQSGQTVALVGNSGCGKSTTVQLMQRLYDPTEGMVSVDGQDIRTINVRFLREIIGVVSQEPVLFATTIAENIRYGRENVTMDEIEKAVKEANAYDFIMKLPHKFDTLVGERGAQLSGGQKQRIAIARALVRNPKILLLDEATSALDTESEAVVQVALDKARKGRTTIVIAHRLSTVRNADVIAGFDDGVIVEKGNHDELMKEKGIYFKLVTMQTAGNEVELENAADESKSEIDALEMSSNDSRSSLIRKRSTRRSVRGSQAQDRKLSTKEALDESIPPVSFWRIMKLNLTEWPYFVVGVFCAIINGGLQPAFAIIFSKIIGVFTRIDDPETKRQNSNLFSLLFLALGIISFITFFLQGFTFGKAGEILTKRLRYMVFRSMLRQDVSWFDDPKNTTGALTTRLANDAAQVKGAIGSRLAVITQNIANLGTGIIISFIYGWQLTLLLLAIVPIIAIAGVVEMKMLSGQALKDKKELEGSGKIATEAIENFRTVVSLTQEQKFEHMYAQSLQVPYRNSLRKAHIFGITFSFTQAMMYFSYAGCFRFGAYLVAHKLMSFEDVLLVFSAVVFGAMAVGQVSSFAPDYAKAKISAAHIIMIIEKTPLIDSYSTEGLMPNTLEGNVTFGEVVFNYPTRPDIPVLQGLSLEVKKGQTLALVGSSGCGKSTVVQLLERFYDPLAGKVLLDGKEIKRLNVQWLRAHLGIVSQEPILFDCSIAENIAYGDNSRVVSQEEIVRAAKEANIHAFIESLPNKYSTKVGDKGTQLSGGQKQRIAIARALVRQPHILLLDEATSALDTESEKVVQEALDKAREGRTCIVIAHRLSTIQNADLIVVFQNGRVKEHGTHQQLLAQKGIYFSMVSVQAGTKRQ
Summary of the method: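 P-gp substrate potential tested in MDCK-MDR1 monolayers on Transwell supports, cultured 4-8 days; monolayers with TEER <42 ohms·cm2 discarded. Transport run in HBSS (10 mM HEPES, pH 7.4) at 37° C with compound working solution at 1 μM.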

wild type c-kit, sequence (P10721 26-976): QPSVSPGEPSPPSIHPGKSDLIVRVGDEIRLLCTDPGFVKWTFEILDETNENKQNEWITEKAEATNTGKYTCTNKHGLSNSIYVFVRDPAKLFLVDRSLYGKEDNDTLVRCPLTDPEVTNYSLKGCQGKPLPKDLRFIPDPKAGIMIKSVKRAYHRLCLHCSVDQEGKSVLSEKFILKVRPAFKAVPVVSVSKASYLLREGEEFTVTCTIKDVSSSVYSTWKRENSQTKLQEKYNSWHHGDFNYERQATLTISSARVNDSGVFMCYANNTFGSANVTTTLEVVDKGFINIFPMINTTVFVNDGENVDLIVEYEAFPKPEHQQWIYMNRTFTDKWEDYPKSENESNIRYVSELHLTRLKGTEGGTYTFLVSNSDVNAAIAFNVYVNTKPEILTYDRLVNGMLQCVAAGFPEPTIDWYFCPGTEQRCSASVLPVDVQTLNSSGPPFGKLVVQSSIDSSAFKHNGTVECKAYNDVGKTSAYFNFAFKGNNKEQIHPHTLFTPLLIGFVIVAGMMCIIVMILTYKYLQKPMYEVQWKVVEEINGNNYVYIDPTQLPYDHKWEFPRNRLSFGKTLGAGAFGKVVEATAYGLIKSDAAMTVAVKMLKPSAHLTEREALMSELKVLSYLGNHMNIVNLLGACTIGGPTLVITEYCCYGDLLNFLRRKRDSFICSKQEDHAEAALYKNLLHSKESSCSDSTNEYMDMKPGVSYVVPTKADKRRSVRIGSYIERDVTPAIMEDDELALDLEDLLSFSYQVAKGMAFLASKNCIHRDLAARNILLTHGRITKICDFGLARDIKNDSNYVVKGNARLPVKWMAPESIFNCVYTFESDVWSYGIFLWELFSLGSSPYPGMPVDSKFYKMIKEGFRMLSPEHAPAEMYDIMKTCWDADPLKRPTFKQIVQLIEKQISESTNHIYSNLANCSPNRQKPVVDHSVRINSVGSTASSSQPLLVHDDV

Row | SMILES | IC50 (wild type c-kit) [nM] | efflux ratio at 2 h, 1 µM [1]
1 | Cc1ccc(-c2nnn(C[C@@H]3CC3(F)F)n2)cc1NC(=O)c1cnn2ccc(-c3cn[nH]c3)cc12 (single isomer, unassigned) [Example 56, (S)—N-(5-(2-((2,2-difluorocyclopropyl)methyl)-2H-tetrazol-5-yl)-2-methylphenyl)-5-(1H-pyrazol-4-yl)pyrazolo[1,5-a]pyridine-3-carboxamide or (R)—N-(5-(2-((2,2-difluorocyclopropyl)methyl)-2H-tetrazol-5-yl)-2-methylphenyl)-5-(1H-pyrazol-4-yl)pyrazolo[1,5-a]pyridine-3-carboxamide] | 1.1 | 24.5
2 | Cc1ccc(-c2nnn(C[C@H]3CC3(F)F)n2)cc1NC(=O)c1cnn2ccc(-c3cn[nH]c3)cc12 (single isomer, unassigned) [Example 55, (R)—N-(5-(2-((2,2-difluorocyclopropyl)methyl)-2H-tetrazol-5-yl)-2-methylphenyl)-5-(1H-pyrazol-4-yl)pyrazolo[1,5-a]pyridine-3-carboxamide or (S)—N-(5-(2-((2,2-difluorocyclopropyl)methyl)-2H-tetrazol-5-yl)-2-methylphenyl)-5-(1H-pyrazol-4-yl)pyrazolo[1,5-a]pyridine-3-carboxamide] | 1.1 | 19.7
3 | Cc1ccc(-c2nnn(C3CN(S(=O)(=O)C4(C)CC4)C3)n2)cc1NC(=O)c1cnn2ccccc12 [Example 181, N-(2-methyl-5-(2-(1-((1-methylcyclopropyl)sulfonyl)azetidin-3-yl)-2H-tetrazol-5-yl)phenyl)pyrazolo[1,5-a]pyridine-3-carboxamide] | 6.4 | 3.1
4 | COc1ccn2ncc(C(=O)Nc3cc(-c4nnn(C5CN(S(C)(=O)=O)C5)n4)ccc3C)c2c1 [Example 153, 5-methoxy-N-(2-methyl-5-(2-(1-(methylsulfonyl)azetidin-3-yl)-2H-tetrazol-5-yl)phenyl)pyrazolo[1,5-a]pyridine-3-carboxamide] | 4.5 | 3.9
5 | Cc1ccc(-c2nnn(C3CN(S(=O)(=O)CCO)C3)n2)cc1NC(=O)c1cnn2ccccc12 [Example 203, N-(5-(2-(1-((2-hydroxyethyl)sulfonyl)azetidin-3-yl)-2H-tetrazol-5-yl)-2-methylphenyl)pyrazolo[1,5-a]pyridine-3-carboxamide] | 16.7 | 12.8
6 | Cc1ccc(-c2nnn(C[C@@H]3CC3(F)F)n2)cc1NC(=O)c1cnn2ccccc12 (single isomer, unassigned) [Example 25, (S)—N-(5-(2-((2,2-difluorocyclopropyl)methyl)-2H-tetrazol-5-yl)-2-methylphenyl)pyrazolo[1,5-a]pyridine-3-carboxamide or (R)—N-(5-(2-((2,2-difluorocyclopropyl)methyl)-2H-tetrazol-5-yl)-2-methylphenyl)pyrazolo[1,5-a]pyridine-3-carboxamide] | 7.6 | –
7 | COC(=O)N1CC(c2nnn(-c3ccc(Cl)c(NC(=O)c4cnn5ccccc45)c3)n2)C1 [Example 194] | 11.6 | –
8 | Cc1ccc(-c2nnn([C@@H](C)c3ccccc3F)n2)cc1NC(=O)c1cnn2ccccc12 [Example 33, (S)-N-(5-(2-(1-(2-fluorophenyl)ethyl)-2H-tetrazol-5-yl)-2-methylphenyl)pyrazolo[1,5-a]pyridine-3-carboxamide] | 2.7 | –
9 | Cc1ccc(-c2nnn(C3CCC3)n2)cc1NC(=O)c1cnn2ccccc12 [Example 8, N-(5-(2-cyclobutyl-2H-tetrazol-5-yl)-2-methylphenyl)pyrazolo[1,5-a]pyridine-3-carboxamide] | 2.7 | –
10 | Cc1ccc(-c2nnn(C3CC4(CCC4)C3)n2)cc1NC(=O)c1cnn2ccccc12 [Example 4, N-(2-methyl-5-(2-(spiro[3.3]heptan-2-yl)-2H-tetrazol-5-yl)phenyl)pyrazolo[1,5-a]pyridine-3-carboxamide] | 2.6 | –
11 | Cc1ccc(-c2nnn(C)n2)cc1NC(=O)c1cnn2ccc(-c3cn[nH]c3)cc12 [Example 43, N-(2-methyl-5-(2-methyl-2H-tetrazol-5-yl)phenyl)-5-(1H-pyrazol-4-yl)pyrazolo[1,5-a]pyridine-3-carboxamide] | 5.4 | 11.9
12 | Cc1ccc(-c2nnn(C3CN(S(C)(=O)=O)C3)n2)cc1NC(=O)c1cnn2ccc(C3CC3)cc12 [Example 50, 5-cyclopropyl-N-(2-methyl-5-(2-(1-(methylsulfonyl)azetidin-3-yl)-2H-tetrazol-5-yl)phenyl)pyrazolo[1,5-a]pyridine-3-carboxamide] | 8 | 6.5
13 | Cc1ccc(-n2nnc(C3CC3)n2)cc1NC(=O)c1cnn2ccccc12 [Example 152, N-(5-(5-cyclopropyl-2H-tetrazol-2-yl)-2-methylphenyl)pyrazolo[1,5-a]pyridine-3-carboxamide] | 3.6 | –
14 | Cc1ccc(-c2nnn(C3CC(F)(F)C3)n2)cc1NC(=O)c1cnn2ccc(-c3cn[nH]c3)cc12 [Example 198, N-(5-(2-(3,3-difluorocyclobutyl)-2H-tetrazol-5-yl)-2-methylphenyl)-5-(1H-pyrazol-4-yl)pyrazolo[1,5-a]pyridine-3-carboxamide] | 1.7 | 16.6
15 | Cc1ccc(-c2nnn(C3CC(F)C3)n2)cc1NC(=O)c1cnn2ccccc12 (stereo not drawn) [Example 32, N-(5-(2-(3-fluorocyclobutyl)-2H-tetrazol-5-yl)-2-methylphenyl)pyrazolo[1,5-a]pyridine-3-carboxamide] | 2.5 | –
16 | Cc1ccc(-c2nnn(C[C@H]3CCCCO3)n2)cc1NC(=O)c1cnn2ccccc12 (single isomer, unassigned) [Example 40, (S)-N-(2-methyl-5-(2-((tetrahydro-2H-pyran-2-yl)methyl)-2H-tetrazol-5-yl)phenyl)pyrazolo[1,5-a]pyridine-3-carboxamide or (R)-N-(2-methyl-5-(2-((tetrahydro-2H-pyran-2-yl)methyl)-2H-tetrazol-5-yl)phenyl)pyrazolo[1,5-a]pyridine-3-carboxamide] | 3.1 | –
17 | Cc1ccc(-n2nnc(C3CN(S(=O)(=O)C4CC4)C3)n2)cc1NC(=O)c1cnn2ccccc12 [Example 188, N-(5-(5-(1-(cyclopropylsulfonyl)azetidin-3-yl)-2H-tetrazol-2-yl)-2-methylphenyl)pyrazolo[1,5-a]pyridine-3-carboxamide] | 2.9 | –
18 | COCCS(=O)(=O)N1CC(c2nnn(-c3ccc(C)c(NC(=O)c4cnn5ccccc45)c3)n2)C1 [Example 189, N-(5-(5-(1-((2-methoxyethyl)sulfonyl)azetidin-3-yl)-2H-tetrazol-2-yl)-2-methylphenyl)pyrazolo[1,5-a]pyridine-3-carboxamide] | 4.9 | –
19 | Cc1ccc(-c2nnn(C3CC(F)(F)C3)n2)cc1NC(=O)c1cnn2ccccc12 [Example 5, N-(5-(2-(3,3-difluorocyclobutyl)-2H-tetrazol-5-yl)-2-methylphenyl)pyrazolo[1,5-a]pyridine-3-carboxamide] | 5 | –
20 | Cc1ccc(-c2nnn(CC3CCOCC3)n2)cc1NC(=O)c1cnn2ccccc12 [Example 3, N-(2-methyl-5-(2-((tetrahydro-2H-pyran-4-yl)methyl)-2H-tetrazol-5-yl)phenyl)pyrazolo[1,5-a]pyridine-3-carboxamide] | 8.4 | –
21 | Cc1ccc(-c2nnn([C@H]3C[C@H](C(F)(F)F)C3)n2)cc1NC(=O)c1cnn2ccccc12 [Example 24, N-(2-methyl-5-(2-((1r,3r)-3-(trifluoromethyl)cyclobutyl)-2H-tetrazol-5-yl)phenyl)pyrazolo[1,5-a]pyridine-3-carboxamide or N-(2-methyl-5-(2-((1s,3s)-3-(trifluoromethyl)cyclobutyl)-2H-tetrazol-5-yl)phenyl)pyrazolo[1,5-a]pyridine-3-carboxamide] | 2.1 | –
22 | CO[C@H]1C[C@@H](n2nnc(-c3ccc(C)c(NC(=O)c4cnn5ccccc45)c3)n2)C1 [Example 35, N-(5-(2-((1s,3s)-3-methoxycyclobutyl)-2H-tetrazol-5-yl)-2-methylphenyl)pyrazolo[1,5-a]pyridine-3-carboxamide] | 3.8 | –
